In US9382188B2, “Aromatic ring compound” (TAKEDA PHARMACEUTICAL COMPANY LIMITED, priority 2012, dated 2016):

Biological target: T1, human GPR40 (Homo sapiens, UniProt O14842)
T1 construct: expressed in transfected cells
Experiment: Evaluation of human GPR40 agonist activity with increase in intracellular Ca2+ concentration as an index (FLIPR Tetra)
Format: cell-based
Conditions: test compound 1 μM; CHO(dhfr-) cells stably expressing human GPR40; 100% = activity of 1 μM WO2009/048527 Example 99.2, 0% = DMSO
Description: Evaluation of human GPR40 agonist activity with increase in intracellular Ca^2+ concentration as an index
CHO(dhfr-) cells that stably expressed human GPR40 were suspended in MEMα (Nikken Bio Medical Laboratory) containing 10% dialysis serum (GEMINI BIO-PRODUCTS), 10 mM HEPES (Invitrogen), 100 U/mL penicillin, 100 μg/mL streptomycin (Invitrogen), and plated on a 384 well black/clear cell culture plate at 10,000 cells/well. After culture overnight in a CO2 incubator at 37° C., the culture supernatant was removed, and a loading buffer [dye attached to Calcium 5 Assay Kit (Molecular Devices) was dissolved in an assay buffer (20 mM HEPES, 0.2% fatty acid-free BSA (Sigma-Aldrich), 2.5 mM probenecid (DOJINDO)-containing HBSS (Invitrogen)) added with 0.025% Cremophor EL (DOJINDO)] was added at 37.5 μL/well. After incubation in a CO2 incubator at 37° C. for 1 hr, the cells were stood at room temperature for 15 min, an assay buffer containing the test compound at a final concentration of 1 μM was added at 12.5 μL/well in FLIPR Tetra (Molecular Devices), and the fluorescence amount was successively measured. Human GPR40 agonist activity calculated using an increase in the intracellular Ca^2+ concentration as an index, wherein the activity of 1 μM of the compound described in WO 2009/048527 (WO2009/048527 Example 99.2) was 100%, and the activity when DMSO was added instead of the test compound was 0%.

T1 sequence (O14842 whole entry): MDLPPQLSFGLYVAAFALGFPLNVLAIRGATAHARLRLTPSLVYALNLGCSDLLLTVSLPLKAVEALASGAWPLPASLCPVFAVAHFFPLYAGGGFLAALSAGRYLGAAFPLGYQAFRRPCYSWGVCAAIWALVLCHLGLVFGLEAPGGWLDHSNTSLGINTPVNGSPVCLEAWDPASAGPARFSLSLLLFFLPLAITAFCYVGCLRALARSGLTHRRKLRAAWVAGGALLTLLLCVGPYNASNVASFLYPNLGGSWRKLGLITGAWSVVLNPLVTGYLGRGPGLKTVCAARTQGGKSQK

activation at 1 µM | Human GPR40 agonist activity (increase in intracellular Ca2+ concentration) | SMILES
98% | – | COc1ccc(F)c(-c2ccc(OCc3cccc(OCC(=O)O)c3)nc2CC(C)(C)C)c1 [Example 1, (3-(((6-(2,2-dimethylpropyl)-5-(2-fluoro-5-methoxyphenyl)pyridin-2-yl)oxy)methyl)phenoxy)acetic acid]
108% | – | COc1ccc(F)c(-c2ccc(OCc3cccc(OCC(=O)O)c3)cc2CC(C)(C)C)c1 [Example 2, (3-(((2-(2,2-dimethylpropyl)-2′-fluoro-5′-methoxybiphenyl-4-yl)oxy)methyl)phenoxy)acetic acid]
110% | – | COc1ccc(F)c(-c2ccc(OCc3cccc(C(CC(=O)O)C4CC4)c3)nc2CC(C)(C)C)c1 (stereo not shown) [Example 4, 3-cyclopropyl-3-(3-(((6-(2,2-dimethylpropyl)-5-(2-fluoro-5-methoxyphenyl)pyridin-2-yl)oxy)methyl)phenyl)propanoic acid]
113% | – | COc1ccc(F)c(-c2ccc(SCc3cccc(C(CC(=O)O)C4CC4)c3)cc2CC(C)(C)C)c1 (stereo not shown) [Example 12, 3-cyclopropyl-3-(3-(((2-(2,2-dimethylpropyl)-2′-fluoro-5′-methoxybiphenyl-4-yl)sulfanyl)methyl)phenyl)propanoic acid]
103% | – | COc1ccc(F)c(-c2ccc(OCc3cccc(C(CC(=O)O)C4CC4)c3)c(CCCC(C)(C)C)c2)c1 (stereo not shown) [Example 21, 3-cyclopropyl-3-(3-(((3-(4,4-dimethylpentyl)-2′-fluoro-5′-methoxybiphenyl-4-yl)oxy)methyl)phenyl)propanoic acid]
105% | – | COc1ccc(F)c(-c2ccc(OCc3cccc(C(CC(=O)O)C4CC4)c3)cc2CC(C)(C)C#N)c1 (stereo not shown) [Example 26, 3-(3-(((2-(2-cyano-2-methylpropyl)-2′-fluoro-5′-methoxybiphenyl-4-yl)oxy)methyl)phenyl)-3-cyclopropylpropanoic acid]
95% | – | COc1ccc(F)c(-c2ccc(OCc3cccc(C(CC(=O)O)C4CC4)c3)cc2-c2ccc(C#N)s2)c1 (stereo not shown) [Example 28, 3-(3-(((2-(5-cyano-2-thienyl)-2′-fluoro-5′-methoxybiphenyl-4-yl)oxy)methyl)phenyl)-3-cyclopropylpropanoic acid]
102% | – | COc1ccc(F)c(-c2ccc(C(F)Cc3cccc(CCC(=O)O)c3)nc2CC(C)(C)C)c1 (stereo not shown) [Example 36, 3-(3-(2-(6-(2,2-dimethylpropyl)-5-(2-fluoro-5-methoxyphenyl)pyridin-2-yl)-2-fluoroethyl)phenyl)propanoic acid]
105% | – | COc1ccc(F)c(-c2ccc(OCc3cccc(C(CC(=O)O)C4CCCC4)c3)cc2CC(C)(C)C)c1 (stereo not shown) [Example 39, 3-cyclopentyl-3-(3-(((2-(2,2-dimethylpropyl)-2′-fluoro-5′-methoxybiphenyl-4-yl)oxy)methyl)phenyl)propanoic acid]
101% | – | COc1ccc(F)c(-c2ccc(OCc3cccc(C(CC(=O)O)C4CC4)c3)cc2CC2(C#N)CCCC2)c1 (stereo not shown) [Example 41, 3-(3-(((2-((1-cyanocyclopentyl)methyl)-2′-fluoro-5′-methoxybiphenyl-4-yl)oxy)methyl)phenyl)-3-cyclopropylpropanoic acid]
104% | – | COc1ccc(F)c(-c2ccc(OCc3cccc(C(CC(=O)O)C4CCC4)c3)cc2CC(C)(C)C)c1 (stereo not shown) [Example 42, 3-cyclobutyl-3-(3-(((2-(2,2-dimethylpropyl)-2′-fluoro-5′-methoxybiphenyl-4-yl)oxy)methyl)phenyl)propanoic acid]
107% | – | C=CCCC(CC(=O)O)c1cccc(COc2ccc(-c3cc(OC)ccc3F)c(CC(C)(C)C)c2)c1 (stereo not shown) [Example 43, 3-(3-(((2-(2,2-dimethylpropyl)-2′-fluoro-5′-methoxybiphenyl-4-yl)oxy)methyl)phenyl)hept-6-enoic acid]

Further lines, the molecule ahead of its results:

SMILES | activation at 1 µM | Human GPR40 agonist activity (increase in intracellular Ca2+ concentration)
COc1ccc(F)c(-c2ccc(OCc3cccc(C(CC(=O)O)C4CC4)c3)cc2CC(C)(C)C)c1 (stereo not shown) [Example 3, 3-cyclopropyl-3-(3-(((2-(2,2-dimethylpropyl)-2′-fluoro-5′-methoxybiphenyl-4-yl)oxy)methyl)phenyl)propanoic acid] | 103% | –
COc1ccc(F)c(-c2ccc(OCc3cccc(C(CC(=O)O)C4CC4)c3)nc2CC(C)(C)C)c1 (stereo not shown) [Example 6, sodium 3-cyclopropyl-3-(3-(((6-(2,2-dimethylpropyl)-5-(2-fluoro-5-methoxyphenyl)pyridin-2-yl)oxy)methyl)phenyl)propanoate] | – | 98%
COc1ccc(F)c(-c2ccc(OCc3cccc(CCC(=O)O)c3)cc2CC(C)(C)C)c1 [Example 7, 3-(3-(((2-(2,2-dimethylpropyl)-2′-fluoro-5′-methoxybiphenyl-4-yl)oxy)methyl)phenyl)propanoic acid] | 108% | –
COc1ccc(F)c(-c2ccc(NCc3cccc(C(CC(=O)O)C4CC4)c3)cc2CC(C)(C)C)c1 (stereo not shown) [Example 8, 3-cyclopropyl-3-(3-(((2-(2,2-dimethylpropyl)-2′-fluoro-5′-methoxybiphenyl-4-yl)amino)methyl)phenyl)propanoic acid] | 98% | –
COc1ccc(F)c(-c2ccc(N(C)Cc3cccc(C(CC(=O)O)C4CC4)c3)cc2CC(C)(C)C)c1 (stereo not shown) [Example 9, 3-cyclopropyl-3-(3-(((2-(2,2-dimethylpropyl)-2′-fluoro-5′-methoxybiphenyl-4-yl)(methyl)amino)methyl)phenyl)propanoic acid] | 103% | –
COc1ccc(F)c(-c2ccc(N(Cc3cccc(C(CC(=O)O)C4CC4)c3)CC(F)(F)F)cc2CC(C)(C)C)c1 (stereo not shown) [Example 11, 3-cyclopropyl-3-(3-(((2-(2,2-dimethylpropyl)-2′-fluoro-5′-methoxybiphenyl-4-yl)(2,2,2-trifluoroethyl)amino)methyl)phenyl)propanoic acid] | 106% | –
COc1ccc(F)c(-c2ccc(OCc3cccc(C(CC(=O)O)C4CC4)c3)cc2-c2ccc(C(F)(F)F)cc2)c1 (stereo not shown) [Example 17, 3-cyclopropyl-3-(3-(((2-fluoro-5-methoxy-4″-(trifluoromethyl)-1,1′:2′,1″-terphenyl-4′-yl)oxy)methyl)phenyl)propanoic acid] | 98% | –
COc1ccc(F)c(-c2ccc(OCc3cccc(C(CC(=O)O)C4CC4)c3)cc2-c2cnc(C)s2)c1 (stereo not shown) [Example 19, 3-cyclopropyl-3-(3-(((2′-fluoro-5′-methoxy-2-(2-methyl-1,3-thiazol-5-yl)biphenyl-4-yl)oxy)methyl)phenyl)propanoic acid] | 120% | –
COc1ccc(F)c(-c2ncc(OCc3cccc(C(CC(=O)O)C4CC4)c3)cc2CC(C)(C)C)c1 (stereo not shown) [Example 22, 3-cyclopropyl-3-(3-(((5-(2,2-dimethylpropyl)-6-(2-fluoro-5-methoxyphenyl)pyridin-3-yl)oxy)methyl)phenyl)propanoic acid] | 99% | –
COc1ccc(F)c(-c2ccc(OCc3cc(C(CC(=O)O)C4CC4)ccn3)cc2CC(C)(C)C)c1 (stereo not shown) [Example 24, 3-cyclopropyl-3-(2-(((2-(2,2-dimethylpropyl)-2′-fluoro-5′-methoxybiphenyl-4-yl)oxy)methyl)pyridin-4-yl)propanoic acid] | 106% | –
COc1ccc(F)c(-c2ccc(OCc3cc(C(CC(=O)O)C4CC4)ccn3)nc2CC(C)(C)C)c1 (stereo not shown) [Example 25, 3-cyclopropyl-3-(2-(((6-(2,2-dimethylpropyl)-5-(2-fluoro-5-methoxyphenyl)pyridin-2-yl)oxy)methyl)pyridin-4-yl)propanoic acid] | 108% | –
COc1ccc(F)c(-c2ccc(OCc3cc(C(CC(=O)O)C4CC4)ccn3)cc2CC(C)(C)C#N)c1 (stereo not shown) [Example 27, 3-(2-(((2-(2-cyano-2-methylpropyl)-2′-fluoro-5′-methoxybiphenyl-4-yl)oxy)methyl)pyridin-4-yl)-3-cyclopropylpropanoic acid] | 119% | –
COc1ccc(F)c(-c2ccc(OCc3cc(C(CC(=O)O)C4CC4)ncn3)nc2CC(C)(C)C)c1 (stereo not shown) [Example 30, 3-cyclopropyl-3-(6-(((6-(2,2-dimethylpropyl)-5-(2-fluoro-5-methoxyphenyl)pyridin-2-yl)oxy)methyl)pyrimidin-4-yl)propanoic acid] | 103% | –
COc1ccc(F)c(-c2ccc(OCc3cc(C(CC(=O)O)C4CC4)ncn3)cc2CC(C)(C)C)c1 (stereo not shown) [Example 31, 3-cyclopropyl-3-(6-(((2-(2,2-dimethylpropyl)-2′-fluoro-5′-methoxybiphenyl-4-yl)oxy)methyl)pyrimidin-4-yl)propanoic acid] | 108% | –
COc1ccc(F)c(-c2ccc(OCc3cccc(C(CC(=O)O)C4CC4)c3)cc2OCC(C)(C)C)c1 (stereo not shown) [Example 38, 3-cyclopropyl-3-(3-(((2-(2,2-dimethylpropoxy)-2′-fluoro-5′-methoxybiphenyl-4-yl)oxy)methyl)phenyl)propanoic acid] | 111% | –
COc1ccc(F)c(-c2ccc(OCc3cccc(C(CC(=O)O)C4CCCCC4)c3)cc2CC(C)(C)C)c1 (stereo not shown) [Example 40, 3-cyclohexyl-3-(3-(((2-(2,2-dimethylpropyl)-2′-fluoro-5′-methoxybiphenyl-4-yl)oxy)methyl)phenyl)propanoic acid] | 114% | –
